The record followed here is ChEMBL document CHEMBL1201862, “PubChem BioAssay data set” (2004).

Among the test systems are IGROV-1; OVCAR-8; SNB-19; U-251; NCI/ADR-RES; SF-295; Malme-3M; MDA-N; M14; HCT-116; KM12; A549; ACHN; OVCAR-3; TK-10; NCI-H460; HL-60; HOP-62; SF-539; Hs-578T.
Common to all, as to assay: NCI-60 cell line screen, 48 h

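A five-concentration, 48-hour dose response in 96-well plates underlies each endpoint, interpolated linearly between surrounding concentrations. GI50: concentration for 50% inhibition of growth.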 Calls of active or inactive are those of the source. Rule as the data show it: active = GI50 up to about 1.1 µM and inactive = higher. A value given as a limit tells only on which side of the number the result lay.

In the case of `C=C1C(=O)OC2CC1C(OC(=O)/C=C/c1ccccc1)C/C(C)=C/CC/C(C)=C/CCC2(C)O` (stereo not given), the GI50 is 1.56 µM (inactive) in the assay with IGROV-1; 1.75 µM (inactive) with OVCAR-8; 1.89 µM (inactive) with SNB-19; 1.84 µM (inactive) in the assay with U-251; 1.74 µM (inactive) in the assay on NCI/ADR-RES; 1.56 µM (inactive) in the assay with SF-295. Further, the GI50 is 2 µM (inactive) with Malme-3M; 1.38 µM (inactive) in the assay on MDA-N; 1.64 µM (inactive) with M14; 1.24 µM (inactive) in the assay on HCT-116; 1.71 µM (inactive) in the assay with KM12; 1.71 µM (inactive) in the assay on A549. For the same compound, the GI50 is 1.61 µM (inactive) in the assay with ACHN; 1.52 µM (inactive) with OVCAR-3; 1.65 µM (inactive) with TK-10; 1.36 µM (inactive) in the assay on NCI-H460; 0.308 µM (active) in the assay with HL-60; 1.8 µM (inactive) with HOP-62. In addition, the GI50 was 1.46 µM (inactive) in the assay on SF-539 and 2.19 µM (inactive) in the assay with Hs-578T.
`O=C(NN=C1NCCCN1)c1ccco1`: the GI50 in the assay on IGROV-1, in the assay on OVCAR-8, with SNB-19, with U-251, with NCI/ADR-RES and with SF-295 was > 100 µM (inactive) throughout. Moreover, the GI50 in the assay on Malme-3M, with MDA-N, with M14, in the assay on HCT-116, in the assay with KM12 and with A549 was > 100 µM (inactive) throughout. Besides, the GI50 in the assay on ACHN, in the assay with OVCAR-3, with TK-10, in the assay on NCI-H460, with HL-60 and in the assay on HOP-62 was > 100 µM (inactive) each time. In addition, the GI50 in the assay with SF-539 and with Hs-578T was > 100 µM (inactive) each time.
On to `COc1ccc([C@H]2[C@H](C)C3=Nc4ccccc4CN32)cc1`, for which the GI50 in the assay with IGROV-1 is 63.7 µM (inactive); in the assay on OVCAR-8, 71.8 µM (inactive); in the assay on SNB-19, > 100 µM (inactive); in the assay with U-251, 51.5 µM (inactive); in the assay with NCI/ADR-RES it was > 100 µM (inactive); in the assay on SF-295 it was 49.4 µM (inactive). Moreover, the GI50 in the assay with Malme-3M is > 100 µM (inactive); in the assay on MDA-N, 20.7 µM (inactive); in the assay with M14, 42.6 µM (inactive); in the assay with HCT-116, 33.8 µM (inactive); in the assay with KM12, 42.6 µM (inactive); in the assay on A549 it was 55.1 µM (inactive). Besides, the GI50 in the assay on ACHN was 86.9 µM (inactive); in the assay on OVCAR-3, > 100 µM (inactive); in the assay on TK-10, > 100 µM (inactive); in the assay with NCI-H460, 31.6 µM (inactive); with HL-60, 29.9 µM (inactive); with HOP-62, > 100 µM (inactive). Besides, the figures for the GI50 in the assay with SF-539 and in the assay with Hs-578T were 39.3 µM (inactive) and > 100 µM (inactive), respectively.
For `CCn1c(SCC(=O)NNC(=S)Nc2ccc(Cl)cc2)nc2ccccc2c1=O`, the GI50 was > 100 µM (inactive) in the assay with IGROV-1; 43 µM (inactive) with OVCAR-8; > 100 µM (inactive) with SNB-19; 46.9 µM (inactive) with U-251; 47.1 µM (inactive) in the assay with NCI/ADR-RES; 41.9 µM (inactive) with SF-295. Also, the GI50 in the assay on Malme-3M is 42.2 µM (inactive); with MDA-N it was 55.3 µM (inactive); in the assay with M14, > 100 µM (inactive); in the assay with HCT-116, 39.8 µM (inactive); with KM12, 83 µM (inactive); in the assay on A549, 40.6 µM (inactive). For the same compound, the GI50 was 47.9 µM (inactive) in the assay on ACHN; 82 µM (inactive) in the assay with OVCAR-3; 37.3 µM (inactive) in the assay with TK-10; 49.8 µM (inactive) with NCI-H460; 29.9 µM (inactive) in the assay with HL-60; 79.1 µM (inactive) with HOP-62. The GI50 is 58.1 µM (inactive) in the assay with SF-539 and > 100 µM (inactive) with Hs-578T.
Take `OC(C/C(=N\N=C(/CC(O)(C(F)(F)F)C(F)(F)F)c1ccccc1)c1ccccc1)(C(F)(F)F)C(F)(F)F`: the GI50 is > 10 µM (inactive) with IGROV-1; > 10 µM (inactive) in the assay with OVCAR-8; > 10 µM (inactive) in the assay with SNB-19; > 10 µM (inactive) in the assay on U-251; > 10 µM (inactive) with NCI/ADR-RES; 6.44 µM (inactive) in the assay with SF-295. For the same compound, the GI50 in the assay with Malme-3M, in the assay with MDA-N, with M14, in the assay on HCT-116, in the assay with KM12 and in the assay on A549 was > 10 µM (inactive) in each case. Also, the GI50 with ACHN, with OVCAR-3, in the assay with TK-10, with NCI-H460, in the assay with HL-60 and in the assay on HOP-62 was > 10 µM (inactive) in each case. Moreover, the GI50 with SF-539 and with Hs-578T was > 10 µM (inactive) each time.
In the case of `C1=C[C@@H]2c3ccc4cnccc4c3NC[C@@H]2C1`, the GI50 in the assay with IGROV-1, in the assay on OVCAR-8, with SNB-19, with U-251, in the assay on NCI/ADR-RES and in the assay with SF-295 was > 100 µM (inactive) throughout. Besides, the GI50 is > 100 µM (inactive) in the assay with Malme-3M; > 100 µM (inactive) in the assay with MDA-N; > 100 µM (inactive) in the assay on M14; > 100 µM (inactive) in the assay with HCT-116; 86.3 µM (inactive) in the assay on KM12; > 100 µM (inactive) with A549. Further, the GI50 with ACHN, in the assay with OVCAR-3, in the assay with TK-10, in the assay on NCI-H460, in the assay on HL-60 and in the assay on HOP-62 was > 100 µM (inactive) throughout. The GI50 is > 100 µM (inactive) in the assay with SF-539 and 46.8 µM (inactive) in the assay with Hs-578T.
In the case of `O=c1[nH]c(=S)[nH]cc1CN1CCOCC1`, the GI50 with IGROV-1, with OVCAR-8, with SNB-19, in the assay on U-251, in the assay on NCI/ADR-RES and with SF-295 was > 100 µM (inactive) throughout. In addition, the GI50 in the assay on Malme-3M, with MDA-N, with M14, in the assay on HCT-116, in the assay with KM12 and with A549 was > 100 µM (inactive) in each case. Besides, the GI50 in the assay on ACHN, with OVCAR-3, with TK-10, in the assay with NCI-H460, in the assay with HL-60 and with HOP-62 was > 100 µM (inactive) throughout. Also, the GI50 in the assay with SF-539 and in the assay on Hs-578T was > 100 µM (inactive) in each case.
As for `COc1ccc(OC)c([N+](=O)[O-])c1-c1nc2sccn2c1/C=N/N=C(N)N`, the GI50 was 91.6 µM (inactive) in the assay on IGROV-1; > 100 µM (inactive) with OVCAR-8; > 100 µM (inactive) with SNB-19; 41.1 µM (inactive) with U-251; > 100 µM (inactive) in the assay with NCI/ADR-RES; > 100 µM (inactive) with SF-295. The GI50 was 35.2 µM (inactive) in the assay with Malme-3M; 49.8 µM (inactive) in the assay with MDA-N; > 100 µM (inactive) with M14; 48.4 µM (inactive) in the assay on HCT-116; 27.6 µM (inactive) in the assay on KM12; > 100 µM (inactive) in the assay with A549. In addition, the GI50 in the assay on ACHN is > 100 µM (inactive); in the assay with OVCAR-3 it was 58.1 µM (inactive); in the assay on TK-10, 51.4 µM (inactive); in the assay on NCI-H460 it was 76.6 µM (inactive); in the assay with HL-60, 79.6 µM (inactive); in the assay on HOP-62 it was > 100 µM (inactive). In addition, the results for the GI50 in the assay with SF-539 and with Hs-578T were > 100 µM (inactive) and 26.7 µM (inactive), respectively.
`Cc1ccc(S(=O)(=O)N2CCN(S(=O)(=O)c3ccc(C)cc3)CCN(S(=O)(=O)c3ccc(C)cc3)Cc3cc(Br)c(Br)cc3CN(S(=O)(=O)c3ccc(C)cc3)CC2)cc1`: the GI50 with IGROV-1 is 85.5 µM (inactive); in the assay on OVCAR-8, > 100 µM (inactive); in the assay with SNB-19 it was 43.5 µM (inactive); in the assay on U-251, 82 µM (inactive); with NCI/ADR-RES it was > 100 µM (inactive); in the assay with SF-295 it was > 100 µM (inactive). The GI50 with Malme-3M is 44.9 µM (inactive); in the assay on MDA-N, 66.8 µM (inactive); in the assay on M14 it was 19.1 µM (inactive); with HCT-116, > 100 µM (inactive); with KM12 it was 97.7 µM (inactive); in the assay with A549 it was > 100 µM (inactive). Moreover, the GI50 is > 100 µM (inactive) with ACHN; > 100 µM (inactive) with OVCAR-3; 69.5 µM (inactive) in the assay on TK-10; > 100 µM (inactive) in the assay on NCI-H460; > 100 µM (inactive) with HL-60; > 100 µM (inactive) with HOP-62. Further, the GI50 in the assay with SF-539 and in the assay with Hs-578T was > 100 µM (inactive) each time.
For the compound `CN(C)c1ccc(/C=C2\N=C(NN)NC2=O)cc1`, the GI50 in the assay with IGROV-1 is 75.5 µM (inactive); in the assay on OVCAR-8 it was 55 µM (inactive); with SNB-19, > 100 µM (inactive); in the assay with U-251, 47.6 µM (inactive); in the assay with NCI/ADR-RES, 82.2 µM (inactive); with SF-295, > 100 µM (inactive). Moreover, the GI50 in the assay on Malme-3M was > 100 µM (inactive); with MDA-N, 73.8 µM (inactive); in the assay with M14 it was > 100 µM (inactive); in the assay with HCT-116 it was 49.8 µM (inactive); in the assay with KM12 it was 41.1 µM (inactive); in the assay with A549, 61.8 µM (inactive). In addition, the GI50 with ACHN is > 100 µM (inactive); in the assay with OVCAR-3 it was 86.3 µM (inactive); with TK-10, > 100 µM (inactive); with NCI-H460, 69.8 µM (inactive); in the assay with HL-60, 26.7 µM (inactive); in the assay on HOP-62, > 100 µM (inactive). In addition, the GI50 with SF-539 is 35.2 µM (inactive); in the assay with Hs-578T, > 100 µM (inactive).
